These are literature values, as cited in patent publication US20130029862A1, “Clinical application utilizing genetic data for effective medication management” (priority 2011, published 2013).

For data set [1] the following is noted: carriers of C allele compared to T/T homozygotes, ApoE rs7412.
The conditions of data set [2]: Met/Met (A/A) compared to Val/Val (G/G), COMT rs4680.

For the compound `Cc1cc2c(s1)Nc1ccccc1N=C2N1CCN(C)CC1` [olanzapine], in data set [1], the weight gain entry is reported as “likely to gain weight on olanzapine”.
With `Fc1ccc([C@@H]2CCNC[C@H]2COc2ccc3c(c2)OCO3)cc1` [paroxetine], in data set [2], the response with antidepressant entry is listed as “Better response with antidepressant”.
